Entries after “also recorded” stand apart in the source; their conditions may differ. Read-outs that look alike come from different tables or passages of the source. Where no end group is shown, it is not given here.
Experiments:
[1] = test system: calcitonin-gene related peptide mRNA in intrinsic cardiac adrenergic cells; experiment: CGRP mRNA regulation in isolated rat intrinsic cardiac adrenergic (ICA) cells, RT-PCR / quantitative real-time PCR; type: cell-based; settings: for increase in calcitonin-gene related peptide mRNA (quantitative real-time PCR): isolated rat ICA cells, 60-min treatment, DPDPE 100 nM or epinephrine 1 μmol; for increase in calcitonin-gene related peptide mRNA (quantitative real-time PCR) / effect on calcitonin-gene related peptide mRNA levels: FIG. 3; for effect on calcitonin-gene related peptide mRNA levels: rat ICA cells
Protocol: 0-h represents immediately after 60-min drug treatment. 6-h and 24-h represent 6 and 24 hrs after 60 min drug treatment, respectively. Epi: epinephrine. UT: DPDPE-untreated.
RNA load is verified by the amount of GAPDH. Bar graphs are data normalized to their respective GAPDH mRNA.

[2] = cited from earlier work
[3] = test system: rat myocardial ischemia-reperfusion model; experiment: Rat myocardial ischemia-reperfusion model (30-min LAD occlusion, 4-hr reperfusion), infarct size; type: in vivo; settings: for infarct size: 30-min ischemia, 4-hr reperfusion, drug i.v. before ischemia, saline control 25±3%
Protocol: Rat MI model is created by 30-min LAD ligation followed by 4-h reperfusion.
(T+C)H: with high dose of terbutaline 1 mg/kg.
Experimental Myocardial Ischemia-Reperfusion Model. The rat myocardial ischemia-reperfusion model will be used (Birnbaum et al., 2005; Huang et al., 2007). This model consists of 30 min coronary artery occlusion followed by 4-hr reperfusion.
Saline (0.5 ml) will be infused to rats serving as control.
Each antagonist or their combination will be infused 20-min prior to DPDPE infusion. Arterial blood pressure and heart rate will be monitored continuously throughout the experiments.

[4] = test system: left ventricular systolic function; experiment: Left ventricular function by echocardiography after intravenous DPDPE; type: in vivo, rat
From the text: The measurements were obtained from left ventricular short-axis view using echocardiography.
Intravenous infusion of δ-opioid agonist DPDPE to rats causes sustained increase in left ventricular systolic function as reflected by increased left ventricular fractional shortening and ejection fraction (FIG. 10). The fractional shortening and ejection fraction are two clinical parameters used for evaluating left ventricular function assayed by echocardiograph. This positive inotropic effect elicited by DPDPE sustains for more than 40 minutes following drug injection. Augmenting cardiac contractile function by δ-opioid receptor agonist has not been reported. δ-opioid agonists can augment heart performance and can be beneficial for clinical treatment of congestive heart failure.

[5] = DPDPE 100 μg/kg i.v., rats n=3, LV short-axis echocardiography, FIG. 10

Molecule: Cc1ccc(OCC(O)C(C)NC(C)C)c2c1CCC2 (stereo not drawn) [ICI-118551]
- effect on epinephrine-induced CGRP gene upregulation ([1]; ICA cells, epinephrine in the presence of ICI-118551, FIG. 5): epinephrine failed to increase; also recorded: attenuated
- effect on epinephrine-induced CGRP mRNA regulation ([1]; ICI at 50 μmol/L, ICA cells, FIG. 5): completely eliminated

Molecule: COc1cccc2c1C(=O)c1c(O)c3c(c(O)c1C2=O)C[C@@](O)(C(=O)CO)C[C@@H]3O[C@H]1C[C@H](N)[C@H](O)[C@H](C)O1 [doxorubicin]
- incidence of doxorubicin-induced cardiomyopathy ([2]; dose of 501-550 mg/m^2 body surface area): > 5%
- incidence of doxorubicin-induced cardiomyopathy ([2]; dose over 550 mg/m^2): 30%

Molecule: CNC[C@H](O)c1ccc(O)c(O)c1 [epinephrine]
- increase in calcitonin-gene related peptide mRNA compared to untreated (UT) group ([1]; ICA cells treated with epinephrine for 1 hr, FIG. 5): 6 fold
- duration of CGRP gene regulatory effect ([1]; following a brief 60-min epinephrine treatment): 24 h
- increase in calcitonin-gene related peptide mRNA (quantitative real-time PCR) [1]: 14 fold
- effect on calcitonin-gene related peptide mRNA levels [1]: increases

Molecule: CC(C)(C)NCC(O)c1cc(O)cc(O)c1 (stereo not drawn) [terbutaline]
- effect on infarct size, drug delivered before LAD ligation / acute MI ([3]; i.v. infusion before LAD ligation, terbutaline 100 μg/kg, CGRP 30 ng/kg or combination, FIG. 9): no significant infarct-size-reduction

Molecule: (D-Pen^2, D-Pen^5)-enkephalin [DPDPE]
- increase in ejection fraction [4, 5]: 23%
- increase in fractional shortening [4, 5]: 54%
- duration of positive inotropic effect following drug injection ([4]; i.v. DPDPE, rats): more than 40 minutes
- increase in calcitonin-gene related peptide mRNA (quantitative real-time PCR) [1]: 2 fold
- effect on calcitonin-gene related peptide mRNA levels [1]: modestly increases
- infarct size ([3]; FIG. 6): 11±2%
- reduction of infarct size compared to control group ([3]; δ-opioid agonist i.v. before ischemia, FIG. 6): 57%

Molecule: CGRP8-37: calcitonin-gene related peptide receptor antagonist (VTHRLAGLLSRSGGVVKNNFVPTNVGSKAF; ends and bridges not checked; UniProt P06881 90-119, looked up, fragment)
- infarct size ([3]; FIG. 6): 35±8%
- increase in infarct size compared to saline control ([3]; CGRP8-37 i.v. 30 min before onset of myocardial ischemia, FIG. 6): 38%
